Experiments:
C57/BI6 mice = test: Plasma total GLP-1 and total GIP in normal mice one hour after oral administration; assay type: in vivo; conditions: for total circulating GIP levels, result in words / total circulating GLP-1 levels, result in words: 1 hr after giving the compound, compared to vehicle; for Total GIP (plasma) / Total GLP-1 (plasma) / Total GIP, fold change vs. Vehicle / Total GLP-1, fold change vs. Vehicle: C56BI6/J mice, one hour following oral administration of 30 mg/kg; for Total GIP (plasma) / Total GLP-1 (plasma): fasted, mean ± s.e.m.
Experimental: GPR119 Agonists Elevate GIP and GLP-1 in Normal Mice
Male C57/BI6 mice 10 weeks of age were fasted for 15 hrs and randomly grouped (n=6-10) to receive vehicle (0.5% HPMC/0.1% Tween) or a GPR119 agonists of the present invention at 30 mg/kg. 1 hr after compound administration blood was collected by cardiac-stick following iso-fluorane aneasthesia. Blood for analysis of plasma levels of total GLP-1 and total GIP was placed in a K2-EDTA containing tubes supplemented with a DPP-IV inhibitor to prevent degradation of the incretin hormones (30 µM final concentration). Total GLP-1 was determined using an assay from Meso Scale Discovery (Gaithersburg, Md.). GIP was determined using an ELISA assay from Linco (St. Charles, Mo.). For each treatment group Table 2 summarizes the average plasma levels of total GLP-1 (±s.e.m.) from the number of animals in each treatment group as indicated.
Table 3 summarizes the average plasma levels of total GIP (±s.e.m.) from the number of animals in each treatment group as indicated.

C57BI6/J mice = test: Oral glucose tolerance test (OGTT) in normal mice one hour after oral administration; assay type: in vivo; conditions: for glucose area-under-the curve (AUC) over the 120 minute time course, result in words: OGTT in mice, vs vehicle; for % of Vehicle (glucose cAUC): OGTT one hour after p.o. dosing; for % of Vehicle (glucose cAUC) / Glucose cAUC (baseline corrected glucose area under the curve during OGTT): Examples 30 mg/kg, vildagliptin 10 mg/kg, n=10; for Glucose cAUC (baseline corrected glucose area under the curve during OGTT): fasted male C57BI6/J mice, OGTT 2 g dextrose/kg one hour after p.o. dosing, mean ± s.e.m., 120 min
Experimental: In Vivo Effects of GPR119 Agonists on Incretin Hormone Release and Glucose Homeostasis in Mice
Vehicle or compounds were delivered orally via a gavage needle (p.o. at 10 mls/kg). The effect of the GPR119 agonists on glucose homeostasis was assessed by conducting an oral glucose tolerance test (OGTT; 2 g dextrose per kg body weight) one hour after administration of vehicle or test compounds. Whole blood glucose levels were determined prior to compound administration, immediately before and 10, 20, 30, 45, 60, 90 and 120 after glucose administration, using a Glucometer (Freestyle, Therasense).
Table 1 summarizes the glucose excursions during the OGTT as the average baseline corrected glucose area under the curve (cAUC; ±s.e.m.) from the animals in each treatment group.

| SMILES | total circulating GIP levels, result in words (C57/BI6 mice) | total circulating GLP-1 levels, result in words (C57/BI6 mice) | Total GIP (plasma) (C57/BI6 mice) | Total GLP-1 (plasma) (C57/BI6 mice) | Total GIP, fold change vs. Vehicle (C57/BI6 mice) | Total GLP-1, fold change vs. Vehicle (C57/BI6 mice) | glucose area-under-the curve (AUC) over the 120 minute time course, result in words (C57BI6/J mice) | % of Vehicle (glucose cAUC) (C57BI6/J mice) | Glucose cAUC (baseline corrected glucose area under the curve during OGTT) (C57BI6/J mice) |
| --- | --- | --- | --- | --- | --- | --- | --- | --- | --- |
| CC(C)c1noc(N2CCC(COc3ccc(-c4ccc(S(C)(=O)=O)cc4F)nc3)CC2)n1 [Example 83, 2-[2-Fluoro-4-(methylsulfonyl)phenyl]-5-[({1-[3-(1-methylethyl)-1,2,4-oxadiazol-5-yl]-4-piperidinyl}methyl)oxy]pyridine] | increase | increase | 275 ± 29 pg/mL | 6.8 ± 1.8 pg/mL | 3.3 | 3.0 | significantly lowered | 23% | 6754 ± 286 mg·min/dL |
| CC(C)OC(=O)N1CCC(COc2ccc(-c3ccc(S(C)(=O)=O)cc3F)nc2)CC1 [Example 77, 1-Methylethyl 4-[({6-[2-fluoro-4-(methylsulfonyl)phenyl]-3-pyridinyl}oxy)methyl]-1-piperidinecarboxylate] | increase | increase | 182 ± 12 pg/mL | 7.5 ± 2.0 pg/mL | 2.2 | 3.3 | significantly lowered | 21% | 6884 ± 694 mg·min/dL |
